Assay results: ChEMBL document CHEMBL3885881, “DrugMatrix”

Species on record: Rattus norvegicus
Experiment: DrugMatrix - Regimen: Daily Repeat
Assay type: toxicity, organism-based, Sprague-Dawley
Parameters: regimen Daily Repeat, gender Male, age 6-8 weeks
Details: in vivo, po, route oral GAVAGE, vehicle 100 % WATER; for ABSOLUTE BASOPHIL / ABSOLUTE EOSINOPHIL / ABSOLUTE LYMPHOCYTE / ABSOLUTE MONOCYTE / ABSOLUTE SEGMENTED NEUTROPHIL / BASOPHIL / EOSINOPHIL / ERYTHROCYTE COUNT / HEMATOCRIT / HEMOGLOBIN / LEUKOCYTE COUNT / LYMPHOCYTE / MEAN CORPUSCULAR HEMOGLOBIN / MEAN CORPUSCULAR HEMOGLOBIN CONCENTRATION / MEAN CORPUSCULAR VOLUME / MONOCYTE / NEUTROPHIL / NUCLEATED RED BLOOD CELLS / PLATELET COUNT: tissue Blood; for ALANINE AMINOTRANSFERASE / ALBUMIN / ALKALINE PHOSPHATASE / ASPARTATE AMINOTRANSFERASE / BLOOD UREA NITROGEN / CARBON DIOXIDE / CHLORIDE / CHOLESTEROL / CREATINE PHOSPHOKINASE / CREATININE / GLUCOSE / LACTATE DEHYDROGENASE / LIPASE / PHOSPHORUS / POTASSIUM / SODIUM / TOTAL BILIRUBIN / TOTAL PROTEIN / URIC ACID: tissue Plasma
[1] = 17 mg/kg, 72 h, dose level High, time 3 day
[2] = 17 mg/kg, 120 h, dose level High, time 5 day
[3] = […], 72 h, dose 1.7 mg/Kg, dose level Low, time 3 day
[4] = […], 120 h, dose 1.7 mg/Kg, dose level Low, time 5 day

COP(=O)(OC)OC=C(Cl)Cl [DICHLORVOS]
ABSOLUTE BASOPHIL [1]: 0 CELLS/uL
ABSOLUTE EOSINOPHIL [1]: 43.33 CELLS/uL
ABSOLUTE LYMPHOCYTE [1]: 12252 CELLS/uL
ABSOLUTE MONOCYTE [1]: 527.33 CELLS/uL
ABSOLUTE SEGMENTED NEUTROPHIL [1]: 1577.33 CELLS/uL
BASOPHIL [1]: 0%
EOSINOPHIL [1]: 0.33%
ERYTHROCYTE COUNT [1]: 5.59 x10E6/uL
HEMATOCRIT [1]: 34.9%
HEMOGLOBIN [1]: 13.5 G/DL
LEUKOCYTE COUNT [1]: 14.4 x10E3/uL
LYMPHOCYTE [1]: 85%
MEAN CORPUSCULAR HEMOGLOBIN [1]: 24.17 pg
MEAN CORPUSCULAR HEMOGLOBIN CONCENTRATION [1]: 38.7 G/DL
MEAN CORPUSCULAR VOLUME [1]: 62.53 fL
MONOCYTE [1]: 3.67%
NEUTROPHIL [1]: 11%
NUCLEATED RED BLOOD CELLS [1]: 0 /100WBC
PLATELET COUNT [1]: 1225.67 x10E3/uL
ALANINE AMINOTRANSFERASE [1]: 49.67 u/L
ALBUMIN [1]: 4 G/DL
ALKALINE PHOSPHATASE [1]: 370.33 u/L
ASPARTATE AMINOTRANSFERASE [1]: 92 u/L
BLOOD UREA NITROGEN [1]: 17.67 mg/dL
CARBON DIOXIDE [1]: 27 mmol/L
CHLORIDE [1]: 104.33 MEQ/L
CHOLESTEROL [1]: 63.67 mg/dL
CREATINE PHOSPHOKINASE [1]: 448 u/L
CREATININE [1]: 0.2 mg/dL
GLUCOSE [1]: 141 mg/dL
LACTATE DEHYDROGENASE [1]: 444.33 u/L
LIPASE [1]: 8.33 u/L
PHOSPHORUS [1]: 12.67 mg/dL
POTASSIUM [1]: 6.46 MEQ/L
SODIUM [1]: 145.9 MEQ/L
TOTAL BILIRUBIN [1]: 0.2 mg/dL
TOTAL PROTEIN [1]: 5.77 G/DL
URIC ACID [1]: 1.23 mg/dL
ABSOLUTE BASOPHIL [2]: 0 CELLS/uL
ABSOLUTE EOSINOPHIL [2]: 213.33 CELLS/uL
ABSOLUTE LYMPHOCYTE [2]: 13980 CELLS/uL
ABSOLUTE MONOCYTE [2]: 329.33 CELLS/uL
ABSOLUTE SEGMENTED NEUTROPHIL [2]: 1944 CELLS/uL
BASOPHIL [2]: 0%
EOSINOPHIL [2]: 1.33%
ERYTHROCYTE COUNT [2]: 5.69 x10E6/uL
HEMATOCRIT [2]: 34.17%
HEMOGLOBIN [2]: 13.03 G/DL
LEUKOCYTE COUNT [2]: 16.47 x10E3/uL
LYMPHOCYTE [2]: 85%
MEAN CORPUSCULAR HEMOGLOBIN [2]: 22.9 pg
MEAN CORPUSCULAR HEMOGLOBIN CONCENTRATION [2]: 38.13 G/DL
MEAN CORPUSCULAR VOLUME [2]: 60.07 fL
MONOCYTE [2]: 2%
NEUTROPHIL [2]: 11.67%
NUCLEATED RED BLOOD CELLS [2]: 0 /100WBC
PLATELET COUNT [2]: 1272.67 x10E3/uL
ALANINE AMINOTRANSFERASE [2]: 46 u/L
ALBUMIN [2]: 4.23 G/DL
ALKALINE PHOSPHATASE [2]: 289.33 u/L
ASPARTATE AMINOTRANSFERASE [2]: 91 u/L
BLOOD UREA NITROGEN [2]: 19.33 mg/dL
CARBON DIOXIDE [2]: 24.67 mmol/L
CHLORIDE [2]: 105.33 MEQ/L
CHOLESTEROL [2]: 60.33 mg/dL
CREATINE PHOSPHOKINASE [2]: 609.33 u/L
CREATININE [2]: 0.22 mg/dL
GLUCOSE [2]: 167.33 mg/dL
LACTATE DEHYDROGENASE [2]: 458 u/L
LIPASE [2]: 8.33 u/L
PHOSPHORUS [2]: 12.8 mg/dL
POTASSIUM [2]: 5.47 MEQ/L
SODIUM [2]: 146.93 MEQ/L
TOTAL BILIRUBIN [2]: 0.13 mg/dL
TOTAL PROTEIN [2]: 5.8 G/DL
URIC ACID [2]: 1.37 mg/dL
ABSOLUTE BASOPHIL [3]: 0 CELLS/uL
ABSOLUTE EOSINOPHIL [3]: 0 CELLS/uL
ABSOLUTE LYMPHOCYTE [3]: 12487 CELLS/uL
ABSOLUTE MONOCYTE [3]: 388 CELLS/uL
ABSOLUTE SEGMENTED NEUTROPHIL [3]: 1291.67 CELLS/uL
BASOPHIL [3]: 0%
EOSINOPHIL [3]: 0%
ERYTHROCYTE COUNT [3]: 6.29 x10E6/uL
HEMATOCRIT [3]: 38.27%
HEMOGLOBIN [3]: 14.27 G/DL
LEUKOCYTE COUNT [3]: 14.17 x10E3/uL
LYMPHOCYTE [3]: 88.33%
MEAN CORPUSCULAR HEMOGLOBIN [3]: 22.67 pg
MEAN CORPUSCULAR HEMOGLOBIN CONCENTRATION [3]: 37.3 G/DL
MEAN CORPUSCULAR VOLUME [3]: 60.77 fL
MONOCYTE [3]: 2.67%
NEUTROPHIL [3]: 9%
NUCLEATED RED BLOOD CELLS [3]: 0 /100WBC
PLATELET COUNT [3]: 1299 x10E3/uL
ALANINE AMINOTRANSFERASE [3]: 50 u/L
ALBUMIN [3]: 4.4 G/DL
ALKALINE PHOSPHATASE [3]: 363 u/L
ASPARTATE AMINOTRANSFERASE [3]: 81.33 u/L
BLOOD UREA NITROGEN [3]: 14.67 mg/dL
CARBON DIOXIDE [3]: 23 mmol/L
CHLORIDE [3]: 104 MEQ/L
CHOLESTEROL [3]: 85.67 mg/dL
CREATINE PHOSPHOKINASE [3]: 178 u/L
CREATININE [3]: 0.19 mg/dL
GLUCOSE [3]: 178.67 mg/dL
LACTATE DEHYDROGENASE [3]: 95.67 u/L
LIPASE [3]: 9.33 u/L
PHOSPHORUS [3]: 13.57 mg/dL
POTASSIUM [3]: 6.76 MEQ/L
SODIUM [3]: 146.43 MEQ/L
TOTAL BILIRUBIN [3]: 0.23 mg/dL
TOTAL PROTEIN [3]: 6.37 G/DL
URIC ACID [3]: 3.2 mg/dL
ABSOLUTE BASOPHIL [4]: 0 CELLS/uL
ABSOLUTE EOSINOPHIL [4]: 131 CELLS/uL
ABSOLUTE LYMPHOCYTE [4]: 11771.67 CELLS/uL
ABSOLUTE MONOCYTE [4]: 175 CELLS/uL
ABSOLUTE SEGMENTED NEUTROPHIL [4]: 1055.67 CELLS/uL
BASOPHIL [4]: 0%
EOSINOPHIL [4]: 1%
ERYTHROCYTE COUNT [4]: 5.65 x10E6/uL
HEMATOCRIT [4]: 34.67%
HEMOGLOBIN [4]: 13 G/DL
LEUKOCYTE COUNT [4]: 13.13 x10E3/uL
LYMPHOCYTE [4]: 89.67%
MEAN CORPUSCULAR HEMOGLOBIN [4]: 22.97 pg
MEAN CORPUSCULAR HEMOGLOBIN CONCENTRATION [4]: 37.5 G/DL
MEAN CORPUSCULAR VOLUME [4]: 61.37 fL
MONOCYTE [4]: 1.33%
NEUTROPHIL [4]: 8%
NUCLEATED RED BLOOD CELLS [4]: 0 /100WBC
PLATELET COUNT [4]: 1220 x10E3/uL
ALANINE AMINOTRANSFERASE [4]: 47.67 u/L
ALBUMIN [4]: 4.2 G/DL
ALKALINE PHOSPHATASE [4]: 278 u/L
ASPARTATE AMINOTRANSFERASE [4]: 83.67 u/L
BLOOD UREA NITROGEN [4]: 18.33 mg/dL
CARBON DIOXIDE [4]: 25.67 mmol/L
CHLORIDE [4]: 106.67 MEQ/L
CHOLESTEROL [4]: 68.33 mg/dL
CREATINE PHOSPHOKINASE [4]: 322.33 u/L
CREATININE [4]: 0.19 mg/dL
GLUCOSE [4]: 144.33 mg/dL
LACTATE DEHYDROGENASE [4]: 436.33 u/L
LIPASE [4]: 8.67 u/L
PHOSPHORUS [4]: 11.6 mg/dL
POTASSIUM [4]: 6.06 MEQ/L
SODIUM [4]: 146.23 MEQ/L
TOTAL BILIRUBIN [4]: 0.2 mg/dL
TOTAL PROTEIN [4]: 5.9 G/DL
URIC ACID [4]: 1.03 mg/dL
